Results from patent US20250312468A1, “ANTI-PROTAC ANTIBODIES AND COMPLEXES” (Merck Patent GmbH, priority 2021, published 2025).
pKd: −log10 of the molar value.

Columns and labels:
[1] = molecular target: BRD4 (Homo sapiens, UniProt O60885); assay: BRD4 Western blot degradation assay in MV411 cells; type: cell-based; set-up: endogenous in cells; host or cells: MV411; settings: CD33-positive MV411 cells, 24 h, complexes (1:1)
Experimental: Therefore, CD33-positive MV411 cells were treated with CD33xMIC7+GNE987 or DIGxMIC7+GNE987, as non-binding PAX control, at different concentrations and GNE987 alone as control. MV411 cells were cultured in RPMI-1640 medium supplemented with 10% FCS and penicillin-streptomycin. MV411 cells were seeded in 12-well plates at 1 million cells/ml in 2 ml culture medium and cultured overnight in cell incubator at 37° C. and 5% CO2. Complexation was performed as described in chapter 7.4. GNE987 only was preincubated at identical conditions but in absence of antibody. Subsequently, cells were treated by nanodrop dispersion using a Tecan dispenser with either CD33xMIC7+GNE987 (1:1), DIGxMIC7+GNE987 (1:1) or GNE987 in the respective concentration. All conditions were normalized to 0.0005% (v/V) DMSO and 3.0E-5% Tween20. Cells were incubated for 24 h in cell incubator at 37° C. and 5% CO2. […] Protein concentration was determined via Mettler Toledo UV5Nano photometer. […]
After incubation with corresponding HRP-labeled anti-rabbit/mouse secondary antibodies (GE-Healthcare) at 1:10,000 dilution, blots were detected using ECL solution (Advansta) and x-ray films (GE-Healthcare). Results were analyzed with ImageJ software (version 1.53K, NIH). […]

[2] = mouse, in vivo
Experimental: After shaking/vortexing for 1 min, samples were filtered, (Captiva filtration on polypropylene filter, 0.45 μm pore size) and 120 μL of methanol:water (1:1, v/v) was added to the filtrate and stored at 4° C. until analysis and put in the autosampler before injection. The analysis was carried out on a LC-MS/MS system consisting of an UPLC coupled to a QTRAP 6500+ (Sciex) mass spectrometer. Mobile phase A was water with 0.1% formic acid and mobile phase B was methanol with 0.1% formic acid. […] The chromatography was performed on a Poroshell 120 EC-C18 column, 2.7 μm particles, 3×50 mm, from Agilent Technologies. […] The calibration curve for quantitation was based on standards ranging from 0.5 (Lower Limit of Quantitation) to 10000 (Upper Limit of Quantitation) ng/ml, with 5 calibration points minimum and minimum 75% of calibration standards to be within […] of their nominal values. The total antibody concentration was determined by ligand binding assay (LBA) based on the Meso Scale Diagnostics technology (MSD, LLC., Rockville, MD). […] After a final washing step, 150 μL of 2×MSD Read Buffer T with surfactant (MSD, #R92TC) was added to each well and plates were read on a MESO Quickplex SQ120 plate reader (MSD). […] The lower limit of quantification (LLOQ) was 50 ng/ml.

[3] = molecular target: MIC1; assay: SPR binding of PROTACs to immobilized antibody MIC1; settings: binding of PROTACs to MIC1, steady-state model
Experimental: The binding affinities of hit antibodies MIC1 and MIC2 to a diverse set of VH032-based PROTACs (FIGS. 8A-8B) was determined by surface plasmon resonance (SPR) in a Biacore T200 instrument. The running buffer consist of PBS, 0.05% Tween-20, 2% DMSO and temperature and flow rate were set to 30° C. and 30 μL/min, respectively. The assay setup is depicted exemplarily in FIG. 7A. CM5 sensor chips were coated with antibody (=ligand; 2500 RU) using standard EDC/NHS chemistry. PROTACs (=analytes) were serially diluted (1 μM-1.9 nM) in running buffer, injected to the instrument in consecutive runs and were captured by the antibody resulting in an increase of the corresponding SPR response. After the association step (300 s), running buffer was injected for 600 s and the PROTAC dissociated from the antibody leading to signal decrease. After each run, residual bound PROTAC was removed from the immobilized antibody by injection of 10 mM glycine/HCl, pH 1.5 for 2×30 s regenerating the antibody for the next association and dissociation cycle. To compensate for matrix effects, the measured SPR response signal was subtracted by the analyte response to an inactivated (EDC/NHS, ethanol amine) reference surface omitting the ligand. Furthermore, a DMSO solvent correction was performed and analyte response was subtracted by the running buffer signal. […]

Row | Compound | BRD4 degradation (Western blot) [1] | time after which PROTAC GNE987 concentration fell below LLOQ [2] | half-life of the PROTAC GNE987 ([2]; iv, 0.4 mg/kg) | pKd [3]
1 | Cc1ncsc1-c1ccc(CNC(=O)[C@@H]2C[C@@H](O)CN2C(=O)[C@@H](NC(=O)CCCCCCCCCCNC(=O)c2cc3c(cc2CS(C)(=O)=O)-c2cn(C)c(=O)c4[nH]cc(c24)CN3c2ncc(F)cc2F)C(C)(C)C)cc1 [GNE987] | BRD4 degradation was found | 25 h | 5.8 h | –
2 | Cc1ncsc1-c1ccc([C@H](C)NC(=O)[C@@H]2C[C@@H](O)CN2C(=O)[C@@H](NC(=O)COCCCOCCNC(=O)C[C@@H]2N=C(c3ccc(Cl)cc3)c3c(sc(C)c3C)-n3c(C)nnc32)C(C)(C)C)cc1 [ARV771] | – | – | – | 8.19
